Test results reported in ChEMBL document CHEMBL1201862, “PubChem BioAssay data set” (2004).
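The compound was tested at five concentrations on cells cultured in 96-well plates, with a 48-hour exposure period. Here, GI50 denotes the concentration required for 50% inhibition of growth.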 Activity calls are given as the source filed them. Cut-off read from the data, not from the text of the source: active = GI50 up to about 1.1 µM and inactive = higher.

Assays:
Assay in all cases: DTP human tumour cell line panel, 48 h
T47D = system: T47D
MCF7 = system: MCF7
COLO 205 = system: COLO 205
U-251 = system: U-251
UACC-257 = system: UACC-257
HCT-15 = system: HCT-15
A549 = system: A549
KM12 = system: KM12
NCI-H23 = system: NCI-H23
SW-620 = system: SW-620
M14 = system: M14
DU-145 = system: DU-145
IGROV-1 = system: IGROV-1
NCI-H460 = system: NCI-H460
CCRF-CEM = system: CCRF-CEM
LOX IMVI = system: LOX IMVI
OVCAR-5 = system: OVCAR-5
HOP-92 = system: HOP-92
NCI/ADR-RES = system: NCI/ADR-RES
BT-549 = system: BT-549
K562 = system: K562
MDA-MB-231 = system: MDA-MB-231
MDA-N = system: MDA-N
HT-29 = system: HT-29
UACC-62 = system: UACC-62
SF-295 = system: SF-295
SN12C = system: SN12C
SK-OV-3 = system: SK-OV-3
MOLT-4 = system: MOLT-4
SF-539 = system: SF-539
PC-3 = system: PC-3
OVCAR-3 = system: OVCAR-3
SNB-19 = system: SNB-19
HCT-116 = system: HCT-116
HCC 2998 = system: HCC 2998
SR = system: SR
RXF 393 = system: RXF 393
786-0 = system: 786-0
SK-MEL-28 = system: SK-MEL-28
RPMI-8226 = system: RPMI-8226
NCI-H522 = system: NCI-H522
HL-60 = system: HL-60
UO-31 = system: UO-31
SNB-75 = system: SNB-75
MDA-MB-435 = system: MDA-MB-435
HOP-62 = system: HOP-62
SF-268 = system: SF-268
SK-MEL-5 = system: SK-MEL-5
OVCAR-8 = system: OVCAR-8
OVCAR-4 = system: OVCAR-4
A498 = system: A498
ACHN = system: ACHN
Malme-3M = system: Malme-3M
SK-MEL-2 = system: SK-MEL-2
EKVX = system: EKVX
TK-10 = system: TK-10
NCI-H226 = system: NCI-H226
Hs-578T = system: Hs-578T
CAKI-1 = system: CAKI-1

Measured: GI50

Cc1cccc(-c2nc(-c3cnccn3)n(Cc3ccccc3)n2)c1
> 100 µM: HCT-15
inactive: T47D 90.6 µM | MCF7 > 100 µM | COLO 205 > 100 µM | U-251 > 100 µM | UACC-257 > 100 µM | A549 > 100 µM | KM12 > 100 µM | NCI-H23 > 100 µM | SW-620 > 100 µM | M14 > 100 µM | DU-145 > 100 µM | IGROV-1 > 100 µM | NCI-H460 > 100 µM | CCRF-CEM > 100 µM | LOX IMVI > 100 µM | OVCAR-5 > 100 µM | HOP-92 34 µM | NCI/ADR-RES > 100 µM | BT-549 > 100 µM | K562 > 100 µM | MDA-MB-231 > 100 µM | MDA-N > 100 µM | HT-29 > 100 µM | UACC-62 70.8 µM | SF-295 50.8 µM | SN12C > 100 µM | SK-OV-3 65.6 µM | MOLT-4 > 100 µM | SF-539 > 100 µM | PC-3 > 100 µM | OVCAR-3 > 100 µM | SNB-19 95.1 µM | HCT-116 > 100 µM | HCC 2998 > 100 µM | SR > 100 µM | RXF 393 29.6 µM | 786-0 52.7 µM | SK-MEL-28 68.5 µM | RPMI-8226 > 100 µM | NCI-H522 > 100 µM | HL-60 > 100 µM | UO-31 > 100 µM | MDA-MB-435 > 100 µM | HOP-62 35.1 µM | SF-268 > 100 µM | SK-MEL-5 > 100 µM | OVCAR-8 99.1 µM | OVCAR-4 27.2 µM
active: SNB-75 < 0.01 µM

CN(C)CCNC1=C(Cl)C(=O)c2c(O)ccc(O)c2C1=O
inactive: T47D 2.08 µM | A498 3.39 µM | COLO 205 1.93 µM | U-251 1.84 µM | UACC-257 1.72 µM | A549 2.58 µM | ACHN 3.5 µM | KM12 1.82 µM | NCI-H23 2.18 µM | SW-620 2.02 µM | M14 1.95 µM | DU-145 1.94 µM | IGROV-1 1.6 µM | NCI-H460 1.95 µM | Malme-3M 2.09 µM | CCRF-CEM 2.01 µM | OVCAR-5 1.74 µM | HOP-92 2.17 µM | NCI/ADR-RES 3.12 µM | BT-549 1.72 µM | SK-MEL-2 2.1 µM | K562 2.76 µM | EKVX 2.97 µM | MDA-MB-231 1.38 µM | MDA-N 2.59 µM | HT-29 1.85 µM | UACC-62 1.85 µM | SF-295 2.12 µM | SN12C 1.89 µM | SK-OV-3 18.2 µM | TK-10 2.33 µM | MOLT-4 2.88 µM | SF-539 1.73 µM | PC-3 6.31 µM | OVCAR-3 1.98 µM | SNB-19 1.95 µM | HCT-116 1.91 µM | HCC 2998 1.79 µM | RXF 393 4.34 µM | 786-0 2.08 µM | SK-MEL-28 2.12 µM | RPMI-8226 2.65 µM | NCI-H522 1.79 µM | HL-60 2.38 µM | NCI-H226 23.6 µM | UO-31 2.02 µM | SNB-75 2.99 µM | Hs-578T 2.99 µM | MDA-MB-435 1.71 µM | HOP-62 1.95 µM | SF-268 17.1 µM | SK-MEL-5 1.54 µM | OVCAR-8 1.9 µM | OVCAR-4 1.87 µM
2.51 µM: HCT-15

CCCNC1=Nc2ccccc2N(Cc2ccccc2)CC1
inactive: A498 11.4 µM | COLO 205 10.9 µM | U-251 18 µM | UACC-257 14.4 µM | A549 35.4 µM | ACHN 23.2 µM | KM12 22.5 µM | NCI-H23 16.5 µM | SW-620 23.7 µM | M14 14.3 µM | DU-145 33.9 µM | IGROV-1 4.54 µM | NCI-H460 13.4 µM | Malme-3M 10.3 µM | CCRF-CEM 21 µM | OVCAR-5 40.2 µM | NCI/ADR-RES 16.1 µM | BT-549 15.5 µM | SK-MEL-2 17 µM | K562 5.57 µM | EKVX 30.5 µM | MDA-MB-231 20.3 µM | MDA-N 26 µM | HT-29 19.5 µM | UACC-62 13.5 µM | SF-295 24.9 µM | SN12C 31.5 µM | SK-OV-3 28.2 µM | TK-10 27.8 µM | MOLT-4 10.9 µM | PC-3 19.3 µM | OVCAR-3 32.4 µM | SNB-19 22.2 µM | HCT-116 29.7 µM | RXF 393 11.6 µM | 786-0 32.4 µM | SK-MEL-28 13.3 µM | RPMI-8226 12.9 µM | NCI-H522 13.9 µM | HL-60 12.9 µM | NCI-H226 26.6 µM | UO-31 30.3 µM | SNB-75 5.62 µM | Hs-578T 14.9 µM | MDA-MB-435 19.1 µM | HOP-62 30.5 µM | SF-268 15.7 µM | CAKI-1 21.3 µM | SK-MEL-5 15 µM | OVCAR-8 14.9 µM | OVCAR-4 35 µM
20.7 µM: HCT-15
